Measured values as given in ChEMBL document CHEMBL1201862, “PubChem BioAssay data set” (2004).
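Five concentrations, 48 hours, 96-well plates. Here, GI50 denotes the concentration required for 50% inhibition of growth.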 Active and inactive are the calls of the source. Cut-off read from the data, not from the text of the source: active = GI50 up to about 1.1 µM and inactive = higher.

What was measured:
Assay in all cases: NCI-60 cell line screen, 48 h
786-0 = tested on: 786-0
A498 = tested on: A498
A549 = tested on: A549
ACHN = tested on: ACHN
BT-549 = tested on: BT-549
CAKI-1 = tested on: CAKI-1
CCRF-CEM = tested on: CCRF-CEM
COLO 205 = tested on: COLO 205
DU-145 = tested on: DU-145
EKVX = tested on: EKVX
HCC 2998 = tested on: HCC 2998
HCT-116 = tested on: HCT-116
HCT-15 = tested on: HCT-15
HL-60 = tested on: HL-60
HOP-62 = tested on: HOP-62
HOP-92 = tested on: HOP-92
HT-29 = tested on: HT-29
Hs-578T = tested on: Hs-578T
IGROV-1 = tested on: IGROV-1
KM12 = tested on: KM12
LOX IMVI = tested on: LOX IMVI
M14 = tested on: M14
MCF7 = tested on: MCF7
MDA-MB-231 = tested on: MDA-MB-231
MDA-MB-435 = tested on: MDA-MB-435
MDA-N = tested on: MDA-N
MOLT-4 = tested on: MOLT-4
Malme-3M = tested on: Malme-3M
NCI-H226 = tested on: NCI-H226
NCI-H23 = tested on: NCI-H23
NCI-H460 = tested on: NCI-H460
NCI-H522 = tested on: NCI-H522
NCI/ADR-RES = tested on: NCI/ADR-RES
OVCAR-3 = tested on: OVCAR-3
OVCAR-4 = tested on: OVCAR-4
OVCAR-5 = tested on: OVCAR-5
OVCAR-8 = tested on: OVCAR-8
PC-3 = tested on: PC-3
RPMI-8226 = tested on: RPMI-8226
RXF 393 = tested on: RXF 393
SF-268 = tested on: SF-268
SF-295 = tested on: SF-295
SF-539 = tested on: SF-539
SK-MEL-28 = tested on: SK-MEL-28
SK-MEL-2 = tested on: SK-MEL-2
SK-MEL-5 = tested on: SK-MEL-5
SK-OV-3 = tested on: SK-OV-3
SN12C = tested on: SN12C
SNB-19 = tested on: SNB-19
SNB-75 = tested on: SNB-75
SR = tested on: SR
SW-620 = tested on: SW-620
T47D = tested on: T47D
TK-10 = tested on: TK-10
U-251 = tested on: U-251
UACC-257 = tested on: UACC-257
UACC-62 = tested on: UACC-62
UO-31 = tested on: UO-31

Structure (SMILES): CC(=O)NNc1nc(C)c(C(/C=C/c2ccc(NC(C)=O)cc2)=N/NS(=O)(=O)c2ccc(C)cc2)s1
- GI50 (786-0): > 100 µM (inactive)
- GI50 (A498): > 100 µM (inactive)
- GI50 (A549): > 100 µM (inactive)
- GI50 (ACHN): > 100 µM (inactive)
- GI50 (BT-549): > 100 µM (inactive)
- GI50 (CAKI-1): > 100 µM (inactive)
- GI50 (CCRF-CEM): > 100 µM (inactive)
- GI50 (COLO 205): > 100 µM (inactive)
- GI50 (DU-145): > 100 µM (inactive)
- GI50 (EKVX): > 100 µM (inactive)
- GI50 (HCC 2998): > 100 µM (inactive)
- GI50 (HCT-116): > 100 µM (inactive)
- GI50 (HCT-15): > 100 µM
- GI50 (HL-60): > 100 µM (inactive)
- GI50 (HOP-62): > 100 µM (inactive)
- GI50 (HOP-92): > 100 µM (inactive)
- GI50 (HT-29): > 100 µM (inactive)
- GI50 (Hs-578T): > 100 µM (inactive)
- GI50 (IGROV-1): > 100 µM (inactive)
- GI50 (KM12): > 100 µM (inactive)
- GI50 (LOX IMVI): > 100 µM (inactive)
- GI50 (M14): > 100 µM (inactive)
- GI50 (MCF7): > 100 µM (inactive)
- GI50 (MDA-MB-231): > 100 µM (inactive)
- GI50 (MDA-MB-435): > 100 µM (inactive)
- GI50 (MDA-N): > 100 µM (inactive)
- GI50 (MOLT-4): > 100 µM (inactive)
- GI50 (Malme-3M): > 100 µM (inactive)
- GI50 (NCI-H226): > 100 µM (inactive)
- GI50 (NCI-H23): > 100 µM (inactive)
- GI50 (NCI-H460): > 100 µM (inactive)
- GI50 (NCI-H522): > 100 µM (inactive)
- GI50 (NCI/ADR-RES): > 100 µM (inactive)
- GI50 (OVCAR-3): > 100 µM (inactive)
- GI50 (OVCAR-4): > 100 µM (inactive)
- GI50 (OVCAR-5): > 100 µM (inactive)
- GI50 (OVCAR-8): > 100 µM (inactive)
- GI50 (PC-3): > 100 µM (inactive)
- GI50 (RPMI-8226): > 100 µM (inactive)
- GI50 (RXF 393): > 100 µM (inactive)
- GI50 (SF-268): > 100 µM (inactive)
- GI50 (SF-295): 27.9 µM (inactive)
- GI50 (SF-539): > 100 µM (inactive)
- GI50 (SK-MEL-28): > 100 µM (inactive)
- GI50 (SK-MEL-2): > 100 µM (inactive)
- GI50 (SK-MEL-5): > 100 µM (inactive)
- GI50 (SK-OV-3): > 100 µM (inactive)
- GI50 (SN12C): > 100 µM (inactive)
- GI50 (SNB-19): > 100 µM (inactive)
- GI50 (SNB-75): > 100 µM (inactive)
- GI50 (SR): > 100 µM (inactive)
- GI50 (SW-620): > 100 µM (inactive)
- GI50 (T47D): > 100 µM (inactive)
- GI50 (TK-10): > 100 µM (inactive)
- GI50 (U-251): > 100 µM (inactive)
- GI50 (UACC-257): > 100 µM (inactive)
- GI50 (UACC-62): > 100 µM (inactive)
- GI50 (UO-31): > 100 µM (inactive)
